Reference: ChEMBL document CHEMBL3885861, “Open TG-GATES”

Species on record: Rattus norvegicus
Test: Open TG-GATES - Regimen: Daily Repeat
Format: toxicity, organism-based, Sprague-Dawley
Parameters: regimen Daily Repeat, gender Male, age 6 weeks
Details: in vivo, po, 0 mg/kg, route gavage, dose level Control; for Bas / Eos / Hb / Ht / Lym / MCH / MCHC / MCV / Mono / Neu / Plat / RBC / Ret / WBC: tissue Blood; for KIDNEY_L / KIDNEY_R / KIDNEY_TOTAL: tissue Kidney; for LIVER: tissue Liver; for A/G / ALP / ALT / AST / BUN / CRE / Ca / Cl / DBIL / GLC / IP / K / LDH / Na / PL / RALB / TBIL / TC / TG / TP / gamma-GTP: tissue Plasma

CC(N)=O [ACETAMIDE]
TERMINAL_BW (72 h, time 3 day): 236.7 g | Bas (72 h, time 3 day): 0% | Eos (72 h, time 3 day): 1% | Hb (72 h, time 3 day): 13.1 g/dL | Ht (72 h, time 3 day): 40.5% | Lym (72 h, time 3 day): 71.4% | MCH (72 h, time 3 day): 20 pg | MCHC (72 h, time 3 day): 32.4% | MCV (72 h, time 3 day): 61.6 fL | Mono (72 h, time 3 day): 3.6% | Neu (72 h, time 3 day): 23% | Plat (72 h, time 3 day): 126.3 x10_4/uL | RBC (72 h, time 3 day): 658.2 x10_4/ul | Ret (72 h, time 3 day): 7.1% | WBC (72 h, time 3 day): 126.7 x10_2/uL | KIDNEY_L (72 h, time 3 day): 1 g | KIDNEY_R (72 h, time 3 day): 1 g | KIDNEY_TOTAL (72 h, time 3 day): 2 g | LIVER (72 h, time 3 day): 11.1 g | A/G (72 h, time 3 day): 1 | ALP (72 h, time 3 day): 1741.8 IU/L | ALT (72 h, time 3 day): 39.8 IU/L | AST (72 h, time 3 day): 71.6 IU/L | BUN (72 h, time 3 day): 15.2 mg/dL | CRE (72 h, time 3 day): 0.1 mg/dL | Ca (72 h, time 3 day): 10.7 mg/dL | Cl (72 h, time 3 day): 105.6 meq/L | DBIL (72 h, time 3 day): 0.004 mg/dL | GLC (72 h, time 3 day): 196 mg/dL | IP (72 h, time 3 day): 6.7 mg/dL | K (72 h, time 3 day): 4.4 meq/L | LDH (72 h, time 3 day): 180.4 IU/L | Na (72 h, time 3 day): 140.9 meq/L | PL (72 h, time 3 day): 162.6 mg/dL | RALB (72 h, time 3 day): 2.8 g/dL | TBIL (72 h, time 3 day): 0.002 mg/dL | TC (72 h, time 3 day): 85.2 mg/dL | TG (72 h, time 3 day): 108.8 mg/dL | TP (72 h, time 3 day): 5.6 g/dL | gamma-GTP (72 h, time 3 day): 0.8 IU/L | TERMINAL_BW ([…], time 7 day): 276.9 g | TERMINAL_BW ([…], time 14 day): 335.4 g | TERMINAL_BW ([…], time 28 day): 415.6 g | Bas ([…], time 7 day): 0% | Eos ([…], time 7 day): 1% | Hb ([…], time 7 day): 12.7 g/dL | Ht ([…], time 7 day): 38.9% | Lym ([…], time 7 day): 75.2% | MCH ([…], time 7 day): 19.9 pg | MCHC ([…], time 7 day): 32.7% | MCV ([…], time 7 day): 60.8 fL | Mono ([…], time 7 day): 3.2% | Neu ([…], time 7 day): 19.8% | Plat ([…], time 7 day): 131.8 x10_4/uL | RBC ([…], time 7 day): 640.2 x10_4/ul | Ret ([…], time 7 day): 6.7% | WBC ([…], time 7 day): 130.3 x10_2/uL | Bas ([…], time 14 day): 0% | Eos ([…], time 14 day): 1% | Hb ([…], time 14 day): 13.4 g/dL | Ht ([…], time 14 day): 40.3% | Lym ([…], time 14 day): 79.8% | MCH ([…], time 14 day): 19.6 pg | MCHC ([…], time 14 day): 33.2% | MCV ([…], time 14 day): 58.9 fL | Mono ([…], time 14 day): 3% | Neu ([…], time 14 day): 15.2% | Plat ([…], time 14 day): 119.7 x10_4/uL | RBC ([…], time 14 day): 685.6 x10_4/ul | Ret ([…], time 14 day): 5.2% | WBC ([…], time 14 day): 124.3 x10_2/uL | Bas ([…], time 28 day): 0% | Eos ([…], time 28 day): 1% | Hb ([…], time 28 day): 13.5 g/dL | Ht ([…], time 28 day): 41.1% | Lym ([…], time 28 day): 82.2% | MCH ([…], time 28 day): 18.5 pg | MCHC ([…], time 28 day): 32.8% | MCV ([…], time 28 day): 56.3 fL | Mono ([…], time 28 day): 2.2% | Neu ([…], time 28 day): 14.2% | Plat ([…], time 28 day): 99.3 x10_4/uL | RBC ([…], time 28 day): 729.2 x10_4/ul | Ret ([…], time 28 day): 4.1% | WBC ([…], time 28 day): 118.1 x10_2/uL | KIDNEY_L ([…], time 7 day): 1.1 g | KIDNEY_R ([…], time 7 day): 1.2 g | KIDNEY_TOTAL ([…], time 7 day): 2.3 g | KIDNEY_L ([…], time 14 day): 1.3 g | KIDNEY_R ([…], time 14 day): 1.3 g | KIDNEY_TOTAL ([…], time 14 day): 2.6 g | KIDNEY_L ([…], time 28 day): 1.4 g | KIDNEY_R ([…], time 28 day): 1.4 g | KIDNEY_TOTAL ([…], time 28 day): 2.8 g | LIVER ([…], time 7 day): 12.8 g | LIVER ([…], time 14 day): 14.7 g | LIVER ([…], time 28 day): 16 g | A/G ([…], time 7 day): 0.9 | ALP ([…], time 7 day): 1570 IU/L | ALT ([…], time 7 day): 38.2 IU/L | AST ([…], time 7 day): 64.2 IU/L | BUN ([…], time 7 day): 16.1 mg/dL | CRE ([…], time 7 day): 0.2 mg/dL | Ca ([…], time 7 day): 10.5 mg/dL | Cl ([…], time 7 day): 103.4 meq/L | DBIL ([…], time 7 day): 0 mg/dL | GLC ([…], time 7 day): 195.2 mg/dL | IP ([…], time 7 day): 6.6 mg/dL | K ([…], time 7 day): 4.7 meq/L | LDH ([…], time 7 day): 164.6 IU/L | Na ([…], time 7 day): 140.6 meq/L | PL ([…], time 7 day): 148.6 mg/dL | RALB ([…], time 7 day): 2.8 g/dL | TBIL ([…], time 7 day): 0 mg/dL | TC ([…], time 7 day): 72.6 mg/dL | TG ([…], time 7 day): 135.5 mg/dL | TP ([…], time 7 day): 5.7 g/dL | gamma-GTP ([…], time 7 day): 0.7 IU/L | A/G ([…], time 14 day): 0.9 | ALP ([…], time 14 day): 1394.4 IU/L | ALT ([…], time 14 day): 33.2 IU/L | AST ([…], time 14 day): 64.6 IU/L | BUN ([…], time 14 day): 17.9 mg/dL | CRE ([…], time 14 day): 0.2 mg/dL | Ca ([…], time 14 day): 10.4 mg/dL | Cl ([…], time 14 day): 103.5 meq/L | DBIL ([…], time 14 day): 0 mg/dL | GLC ([…], time 14 day): 196.6 mg/dL | IP ([…], time 14 day): 6.6 mg/dL | K ([…], time 14 day): 4.2 meq/L | LDH ([…], time 14 day): 170.6 IU/L | Na ([…], time 14 day): 141.6 meq/L | PL ([…], time 14 day): 156 mg/dL | RALB ([…], time 14 day): 2.7 g/dL | TBIL ([…], time 14 day): 0 mg/dL | TC ([…], time 14 day): 72 mg/dL | TG ([…], time 14 day): 191.9 mg/dL | TP ([…], time 14 day): 5.8 g/dL | gamma-GTP ([…], time 14 day): 0.8 IU/L | A/G ([…], time 28 day): 0.8 | ALP ([…], time 28 day): 983.4 IU/L | ALT ([…], time 28 day): 34.2 IU/L | AST ([…], time 28 day): 64.6 IU/L | BUN ([…], time 28 day): 16.3 mg/dL | CRE ([…], time 28 day): 0.2 mg/dL | Ca ([…], time 28 day): 10.3 mg/dL | Cl ([…], time 28 day): 103.9 meq/L | DBIL ([…], time 28 day): 0.004 mg/dL | GLC ([…], time 28 day): 204.8 mg/dL | IP ([…], time 28 day): 6.3 mg/dL | K ([…], time 28 day): 4.1 meq/L | LDH ([…], time 28 day): 179.6 IU/L | Na ([…], time 28 day): 142.3 meq/L | PL ([…], time 28 day): 133.2 mg/dL | RALB ([…], time 28 day): 2.7 g/dL | TBIL ([…], time 28 day): 0.002 mg/dL | TC ([…], time 28 day): 60.2 mg/dL | TG ([…], time 28 day): 133.7 mg/dL | TP ([…], time 28 day): 6 g/dL | gamma-GTP ([…], time 28 day): 0.9 IU/L
